The values below come from US8329645B2, “Polymyxin derivatives and uses thereof” (priority 2008, dated 2012).

In one experiment the test system is A. baumannii ATCC 19606. Description: Sensitization to rifampin: growth inhibition around wells on LB plates containing rifampin. Type of experiment: cell-based, Acinetobacter baumannii. To be noted: 4 μg.
Experiment [1] relates to Acinetobacter baumannii ATCC 19606. In words: Growth inhibition around wells on LB agar plates. Type of experiment: cell-based. To be noted: A. baumannii ATCC 19606. The method, then: (§1) From an overnight-grown culture of IH3080 on LB agar, a suspension of approx. 10^8 cells/ml was prepared in 0.9% NaCl. Aliquots of this suspension were then pipetted on the agar plates and the plates were gently shaken to spread the suspension evenly on the entire surface of the plate. Thereafter, the unabsorbed part of the suspension was removed by using a Pasteur pipette. After the surface had dried, small wells (diameter, 2 mm) were drilled on the plates (five wells per plate) by using a sterile sharp-edged narrow metal tube, single-use pipette tip, and vacuum suction. An alternative method used a swab to spread the inoculum. […] Controls included 0.9% NaCl solution without the compound to be tested. The plates were then incubated for 18 h at 37° C. whereafter the diameters of growth inhibition zones around each well were measured; the diameter of the well itself was not reduced. Finally, the diameters were converted to surface areas of growth inhibition (in square mm).
(§2) Direct antibacterial activity of sixteen NAB compounds against Acinetobacter baumannii ATCC 19606 and Pseudomonas aeruginosa ATCC 27853 was tested by using the susceptibility determination method described in Example 2. Five compounds (NAB7062, NAB734, NAB737, NAB739, and NAB740) had very notable activity against A. baumannii. […] The antibacterial activity of NAB739 and NAB740 were as strong as or even stronger than that of polymyxin B.

The subject of experiment [2] is E. coli IH3080. In words: Growth inhibition around wells on LB agar plates. Type of experiment: cell-based, Escherichia coli. The protocol:
Peptides synthesized in Example 1, all carrying at least two (2) but not more than three (3) positive charges, were studied for their ability to inhibit the growth of E. coli. This was tested employing LB agar (LB Agar Lennox, Difco, BD, Sparks, Md., U.S.A) plates. The indicator organism E. coli IH3080 (K1:O018) was an encapsulated strain originally isolated from a neonate suffering from meningitis (Vaara et al. 1984) and obtained from National Public Health Institute, Helsinki, Finland.
as §1

In experiment [3] the test system is E. coli IH3080. Description: Sensitization to rifampin: growth inhibition around wells on LB plates containing rifampin. Type of experiment: cell-based, Escherichia coli. Conditions: 4 μg of compound. The protocol: (§3) From an overnight-grown culture of IH3080 on LB agar, a suspension of approx. 10^8 cells/ml was prepared in 0.9% NaCl. Aliquots of this suspension were then pipetted on the agar plates and the plates were gently shaken to spread the suspension evenly on the entire surface of the plate. Thereafter, the unabsorbed part of the suspension was removed by using a Pasteur pipette. After the surface had dried, small wells (diameter, 2 mm) were drilled on the plates (five wells per plate) by using a sterile sharp-edged narrow metal tube, single-use pipette tip, and vacuum suction. An alternative method used a swab to spread the inoculum. Samples (4 μl and 10 μl) of the peptide solution in 0.9% NaCl (at concentrations of 1 μg/ml and 0.1 μg/ml) were then pipetted to the wells and the sample fluids were allowed to absorb. Controls included 0.9% NaCl solution without the compound to be tested. The plates were then incubated for 18 h at 37° C. whereafter the diameters of growth inhibition zones around each well were measured; the diameter of the well itself was not reduced. Finally, the diameters were converted to surface areas of growth inhibition (in square mm).

The test system of experiment [4] is Pseudomonas aeruginosa ATCC 27853. In words: Growth inhibition around wells on LB agar plates. Type of experiment: cell-based. Conditions: Ps. aeruginosa ATCC 27853. The protocol:
as §3, §2

For experiment [5], the system named is Ps. aeruginosa ATCC 27853. Description: Sensitization to rifampin: growth inhibition around wells on LB plates containing rifampin. Type of experiment: cell-based, Pseudomonas aeruginosa. Conditions: 4 μg.

Turning to “OA-Thr-Thr-DSer-cy[Dab-Dab-DPhe-Leu-Dab-Dab-Thr-] [NAB 748]”, the “growth inhibition around a well in the presence of rifampin” value with A. baumannii ATCC 19606 (rifampin 0 μg/ml) was 20 square millimeters; with A. baumannii ATCC 19606 (rifampin 0.1 μg/ml), 133 square millimeters; in the experiment with A. baumannii ATCC 19606 (rifampin 0.3 μg/ml), 201 square millimeters; with E. coli IH3080 [3] (rifampin 0 μg/ml), 113 square millimeters; in the experiment with E. coli IH3080 [3] (rifampin 0.1 μg/ml), 154 square millimeters; in the experiment on E. coli IH3080 [3] (rifampin 1.0 μg/ml), 154 square millimeters. Further, the “growth inhibition around a well in the presence of rifampin” value in experiment [5] (rifampin 0 μg/ml) is reported as 20 square millimeters; in experiment [5] (rifampin 0.1 μg/ml), 13 square millimeters; in experiment [5] (rifampin 0.3 μg/ml) it was 20 square millimeters. Also, the “growth inhibition around a well” value in experiment [1] (4 μg) is recorded as 20 square millimeters; in experiment [1] (10 μg), 50 square millimeters; with E. coli IH3080 [2] (4 μg of compound per well), 113 square millimeters; in the experiment with E. coli IH3080 [2] (10 μg of compound per well), 156 square millimeters; in experiment [4] (4 μg), 20 square millimeters; in experiment [4] (10 μg), 50 square millimeters.

In the case of “Polymyxin B nonapeptide [reference compound]”, the “growth inhibition around a well in the presence of rifampin” value worked out at 0 square millimeters in the experiment on A. baumannii ATCC 19606 (rifampin 0 μg/ml); 133 square millimeters with A. baumannii ATCC 19606 (rifampin 0.1 μg/ml); 154 square millimeters in the experiment with A. baumannii ATCC 19606 (rifampin 0.3 μg/ml); 0 square millimeters with E. coli IH3080 [3] (rifampin 0 μg/ml); 20 square millimeters with E. coli IH3080 [3] (rifampin 0.1 μg/ml); 113 square millimeters in the experiment with E. coli IH3080 [3] (rifampin 1.0 μg/ml). The “growth inhibition around a well in the presence of rifampin” value amounted to 113 square millimeters in experiment [5] (rifampin 0 μg/ml), 113 square millimeters in experiment [5] (rifampin 0.1 μg/ml) and 154 square millimeters in experiment [5] (rifampin 0.3 μg/ml). Besides, the “growth inhibition around a well” value in experiment [1] (4 μg) stood at 0 square millimeters; in experiment [1] (10 μg) it was 0 square millimeters; in the experiment on E. coli IH3080 [2] (4 μg of compound per well), 0 square millimeters; with E. coli IH3080 [2] (10 μg of compound per well) it was 0 square millimeters; in experiment [4] (4 μg), 113 square millimeters; in experiment [4] (10 μg), 177 square millimeters.

On to “OA-Thr-DAla-cy[Dab-Dab-DPhe-Thr-Dab-Dab-Thr-] [NAB 738]”, for which the “growth inhibition around a well in the presence of rifampin” value is on record as 0 square millimeters with A. baumannii ATCC 19606 (rifampin 0 μg/ml); 95 square millimeters in the experiment on A. baumannii ATCC 19606 (rifampin 0.1 μg/ml); 154 square millimeters with A. baumannii ATCC 19606 (rifampin 0.3 μg/ml); 0 square millimeters with E. coli IH3080 [3] (rifampin 0 μg/ml); 133 square millimeters with E. coli IH3080 [3] (rifampin 0.1 μg/ml); 177 square millimeters in the experiment with E. coli IH3080 [3] (rifampin 1.0 μg/ml). Also, the “growth inhibition around a well in the presence of rifampin” value in experiment [5] (rifampin 0 μg/ml) is 0 square millimeters; in experiment [5] (rifampin 0.3 μg/ml), 13 square millimeters. The “growth inhibition around a well” value in experiment [1] (4 μg) stood at 0 square millimeters; in experiment [1] (10 μg) it was 0 square millimeters; in the experiment on E. coli IH3080 [2] (4 μg of compound per well), 0 square millimeters; with E. coli IH3080 [2] (10 μg of compound per well), 64 square millimeters; in experiment [4] (4 μg), 0 square millimeters; in experiment [4] (10 μg) it was 0 square millimeters.

Turning to “OA-Thr-Dab-cy[Dab-Dab-DPhe-Leu-Abu-Dab-Thr-] [NAB 716]”, the “growth inhibition around a well in the presence of rifampin” value in the experiment with A. baumannii ATCC 19606 (rifampin 0 μg/ml) came to 0 square millimeters; in the experiment with A. baumannii ATCC 19606 (rifampin 0.1 μg/ml), 0 square millimeters; in the experiment with A. baumannii ATCC 19606 (rifampin 0.3 μg/ml) it was 64 square millimeters; with E. coli IH3080 [3] (rifampin 0 μg/ml), 13 square millimeters; with E. coli IH3080 [3] (rifampin 0.1 μg/ml) it was 133 square millimeters; in the experiment on E. coli IH3080 [3] (rifampin 1.0 μg/ml), 165 square millimeters. Further, the “growth inhibition around a well in the presence of rifampin” value in experiment [5] (rifampin 0 μg/ml), in experiment [5] (rifampin 0.1 μg/ml) and in experiment [5] (rifampin 0.3 μg/ml) was 0 square millimeters throughout. In addition, the “growth inhibition around a well” value amounted to 0 square millimeters in experiment [1] (4 μg); 0 square millimeters in experiment [1] (10 μg); 64 square millimeters in the experiment with E. coli IH3080 [2] (10 μg of compound per well); 0 square millimeters in experiment [4] (4 μg); 0 square millimeters in experiment [4] (10 μg).

In the case of “DA-Thr-Abu-cy[Dab-Dab-DPhe-Leu-Dab-Dab-Thr-] [NAB 7062]”, the “growth inhibition around a well in the presence of rifampin” value in the experiment on A. baumannii ATCC 19606 (rifampin 0 μg/ml) is on record as 13 square millimeters; in the experiment with A. baumannii ATCC 19606 (rifampin 0.1 μg/ml) it was 50 square millimeters; in the experiment with A. baumannii ATCC 19606 (rifampin 0.3 μg/ml), 95 square millimeters; in the experiment with E. coli IH3080 [3] (rifampin 0 μg/ml) it was 50 square millimeters; with E. coli IH3080 [3] (rifampin 1.0 μg/ml), 104 square millimeters; in experiment [5] (rifampin 0 μg/ml), 0 square millimeters. Moreover, the “growth inhibition around a well in the presence of rifampin” value in experiment [5] (rifampin 0.1 μg/ml) is recorded as 0 square millimeters; in experiment [5] (rifampin 0.3 μg/ml), 7 square millimeters. Moreover, the “growth inhibition around a well” value in experiment [1] (4 μg) turned out to be 13 square millimeters; in experiment [1] (10 μg), 38 square millimeters; with E. coli IH3080 [2] (10 μg of compound per well) it was 99 square millimeters; in experiment [4] (4 μg), 0 square millimeters; in experiment [4] (10 μg) it was 0 square millimeters.

“OA-Thr-Abu-cy[Dab-Dab-DPhe-Leu-Dab-Dab-Leu-] [NAB 719]”: the “growth inhibition around a well in the presence of rifampin” value is 0 square millimeters in the experiment with A. baumannii ATCC 19606 (rifampin 0 μg/ml); 154 square millimeters in the experiment with A. baumannii ATCC 19606 (rifampin 0.1 μg/ml); 133 square millimeters in the experiment on A. baumannii ATCC 19606 (rifampin 0.3 μg/ml); 7 square millimeters in the experiment with E. coli IH3080 [3] (rifampin 0 μg/ml); 79 square millimeters in the experiment on E. coli IH3080 [3] (rifampin 0.1 μg/ml); 95 square millimeters in the experiment with E. coli IH3080 [3] (rifampin 1.0 μg/ml). Further, the “growth inhibition around a well in the presence of rifampin” value in experiment [5] (rifampin 0 μg/ml) stood at 0 square millimeters; in experiment [5] (rifampin 0.1 μg/ml) it was 0 square millimeters; in experiment [5] (rifampin 0.3 μg/ml), 7 square millimeters. Also, the “growth inhibition around a well” value in experiment [1] (4 μg) amounted to 0 square millimeters; in experiment [1] (10 μg) it was 0 square millimeters; in the experiment on E. coli IH3080 [2] (4 μg of compound per well), 7 square millimeters; in the experiment with E. coli IH3080 [2] (10 μg of compound per well) it was 50 square millimeters; in experiment [4] (4 μg), 0 square millimeters; in experiment [4] (10 μg) it was 0 square millimeters.
